Target: Urease (Canavalia ensiformis, UniProt P07374)
Experiment: Urease Inhibition Assay
Method: Reaction mixtures comprising 25 μL of enzyme (jack bean urease) solution and 55 μL of buffers containing 100 mM urea were incubated with 5 μL of test compounds (0.5 mM concentration) at 30°C for 15 min in 96-well plates. Urease activity was determined by measuring ammonia production using the indophenol method as described by weather burn14. Briefly, 45 μL each phenol reagent (1% w/v phenol and 0.005% w/v sodium nitroprusside) and 70 μL of alkali reagent (0.5% w/v NaOH and0.1% active chloride NaOCl) were added to each well. The increasing absorbance at 630 nm was measured after 50 min, using a microplate reader (Molecular Device). All reactions were performed in triplicate in a final volume of 200 μL.

Urease, sequence (P07374 whole entry): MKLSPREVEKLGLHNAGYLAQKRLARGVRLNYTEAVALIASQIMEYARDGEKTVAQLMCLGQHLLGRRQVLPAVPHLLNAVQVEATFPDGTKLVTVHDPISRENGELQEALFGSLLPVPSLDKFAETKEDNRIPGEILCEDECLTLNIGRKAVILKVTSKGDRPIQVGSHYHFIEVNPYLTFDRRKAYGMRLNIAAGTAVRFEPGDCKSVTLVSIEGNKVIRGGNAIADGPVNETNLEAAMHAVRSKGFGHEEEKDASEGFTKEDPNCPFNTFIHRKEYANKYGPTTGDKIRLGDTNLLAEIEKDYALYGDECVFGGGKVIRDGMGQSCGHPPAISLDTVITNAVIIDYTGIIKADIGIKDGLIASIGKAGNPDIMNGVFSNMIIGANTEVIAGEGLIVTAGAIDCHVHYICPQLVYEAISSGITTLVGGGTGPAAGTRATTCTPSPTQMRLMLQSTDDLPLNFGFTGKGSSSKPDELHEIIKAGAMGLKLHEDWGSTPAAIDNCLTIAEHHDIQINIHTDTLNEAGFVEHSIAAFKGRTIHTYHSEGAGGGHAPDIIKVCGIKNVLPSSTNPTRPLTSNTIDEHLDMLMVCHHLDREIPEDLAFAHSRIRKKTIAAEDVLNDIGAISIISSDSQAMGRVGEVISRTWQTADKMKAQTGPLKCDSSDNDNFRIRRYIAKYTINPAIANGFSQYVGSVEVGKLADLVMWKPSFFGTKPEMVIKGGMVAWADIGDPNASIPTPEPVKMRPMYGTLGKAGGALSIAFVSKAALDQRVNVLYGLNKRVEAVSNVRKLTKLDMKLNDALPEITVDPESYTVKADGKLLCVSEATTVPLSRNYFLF

Work on `CC(O)CCCCC(=O)c1c(O)cc(O)cc1O` (configuration not stated) [Indigoferin-C (3)] yielded an IC50 of 23.3 µM.

Work on `CC(C)CCCCc1ccc(O[C@@H]2OC(CO)[C@H](O)[C@@H](O)C2O)cc1` (some centres not stated) [Indigoferin-B (2)] yielded an IC50 of 29.7 µM.
